Values joined by “and” are separate entries in the source; they are usually repeats but may differ in a detail not shown here. Equal values may be shown once. Inconclusive results and toxic doses are left out.
Tested on: BDF1 mice, P388 leukemia ip, median survival T/C
Assay: NCI In Vivo Anticancer Drug Screen. Data for tumor model P388 Leukemia (intraperitoneal) in B6D2F1 (BDF1) mice
Conditions: endpoint: median survival time, higher = longer survival
In short: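 Vehicle-dosed animals serve as the reference; survival of compound-dosed, tumour-implanted mice is divided by it.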

[1] = dose: 50.0 mg/kg/injection, schedule: Q01DX009 (ip), vehicle: saline with Tween-80
[2] = dose: 100.0 mg/kg/injection, schedule: Q01DX009 (ip), vehicle: saline with Tween-80
[3] = dose: 200.0 mg/kg/injection, schedule: Q01DX009 (ip), vehicle: saline with Tween-80
[4] = dose: 100.0 mg/kg/injection, schedule: Q04DX003 (ip), vehicle: saline with Tween-80
[5] = dose: 25.0 mg/kg/injection, schedule: Q01DX009 (ip), vehicle: saline with Tween-80
[6] = dose: 200.0 mg/kg/injection, schedule: Q04DX003 (ip), vehicle: saline with Tween-80
[7] = dose: 400.0 mg/kg/injection, schedule: Q01DX009 (ip), vehicle: saline with Tween-80
[8] = dose: 400.0 mg/kg/injection, schedule: Q04DX003 (ip), vehicle: saline with Tween-80
[9] = dose: 100.0 mg/kg/injection, schedule: Q01DX009 (ip), vehicle: Klucel (hydroxypropylcellulose) (HPC)
[10] = dose: 200.0 mg/kg/injection, schedule: Q01DX009 (ip), vehicle: Klucel (hydroxypropylcellulose) (HPC)
[11] = dose: 66.0 mg/kg/injection, schedule: Q01DX009 (ip), vehicle: saline with Tween-80
[12] = dose: 150.0 mg/kg/injection, schedule: Q01DX009 (ip), vehicle: saline with Tween-80

In the case of `COc1cc2oc3c(c(=O)c2c(O)c1/C=C/C(C)C)CCC(C)(C)Oc1cc(O)ccc1-3`, the T/C (dose: 3.13 mg/kg/injection, schedule: Q01DX009 (ip), vehicle: Klucel (hydroxypropylcellulose) (HPC)) was 96 % of control, the T/C (dose: 6.25 mg/kg/injection, schedule: Q01DX009 (ip), vehicle: Klucel (hydroxypropylcellulose) (HPC)) was 94 % of control and the T/C (dose: 12.5 mg/kg/injection, schedule: Q01DX009 (ip), vehicle: Klucel (hydroxypropylcellulose) (HPC)) was 94 % of control. For the same molecule, the T/C (dose: 25.0 mg/kg/injection, schedule: Q01DX009 (ip), vehicle: Klucel (hydroxypropylcellulose) (HPC)) was 103 % of control.
For `C=C1C2CCC3(C)C(c4ccoc4)OC(=O)CC13OC1CC(=O)C(C)(C)C(CC(=O)OC)C12C` (centres undefined), the T/C (dose: 2.0 mg/kg/injection, schedule: Q01DX009 (ip), vehicle: Klucel (hydroxypropylcellulose) (HPC)) was 100 % of control, the T/C (dose: 4.0 mg/kg/injection, schedule: Q01DX009 (ip), vehicle: Klucel (hydroxypropylcellulose) (HPC)) was 100 % of control and the T/C (dose: 8.0 mg/kg/injection, schedule: Q01DX009 (ip), vehicle: Klucel (hydroxypropylcellulose) (HPC)) was 96 % of control. For the same molecule, the T/C (dose: 16.0 mg/kg/injection, schedule: Q01DX009 (ip), vehicle: Klucel (hydroxypropylcellulose) (HPC)) was 100 % of control and the T/C (dose: 32.0 mg/kg/injection, schedule: Q01DX009 (ip), vehicle: Klucel (hydroxypropylcellulose) (HPC)) was 89 % of control.
For `CN(C)c1ccc(C(O)(Cc2cccnc2)c2ccc(N(C)C)cc2)cc1`, the T/C [1] was 113 % of control, the T/C [2] was 100 % of control and the T/C [3] was 96 % of control.
In the case of `CCN(CCP(c1ccccc1)c1ccccc1)CCP(c1ccccc1)c1ccccc1`, the T/C [1] was 86 % of control, the T/C (dose: 66.0 mg/kg/injection, schedule: Q04DX003 (ip), vehicle: saline with Tween-80) was 150 % of control and the T/C [4] was 159 % of control.
In the case of `CCCCCCC(C)[N+](C)(C)C` (centres undefined), the T/C (dose: 6.25 mg/kg/injection, schedule: Q04DX003 (ip), vehicle: saline) was 116 % of control, the T/C (dose: 12.5 mg/kg/injection, schedule: Q04DX003 (ip), vehicle: saline) was 100 % of control and the T/C (dose: 25.0 mg/kg/injection, schedule: Q04DX003 (ip), vehicle: saline) was 113 % of control.
With `CC(C(Nc1ccc(C(=O)O)cc1)C(F)(F)C(F)(F)C(F)(F)F)[N+](=O)[O-]` (centres undefined) the T/C (dose: 100.0 mg/kg/injection, schedule: Q01DX001 (ip), vehicle: saline with Tween-80) was 95 % of control, the T/C (dose: 200.0 mg/kg/injection, schedule: Q01DX001 (ip), vehicle: saline with Tween-80) was 104 % of control and the T/C (dose: 400.0 mg/kg/injection, schedule: Q01DX001 (ip), vehicle: saline with Tween-80) was 100 % of control.
In the case of `Cc1ccc(C(=O)O)cc1S(=O)(=O)F`, the T/C [5] was 114 % of control, the T/C [1] was 104 % of control and the T/C (dose: 50.0 mg/kg/injection, schedule: Q04DX003 (ip), vehicle: saline with Tween-80) was 101 % of control. For the same molecule, the T/C [2] was 98 % of control, the T/C [4] was 102 % of control and the T/C [3] was 104 % of control. For the same molecule, the T/C [6] was 101 % of control, the T/C (dose: 300.0 mg/kg/injection, schedule: Q01DX009 (ip), vehicle: saline with Tween-80) was 110 % of control and the T/C [7] was 123 % of control. The T/C [8] was 101 % of control.
In the case of `CCN1C(=O)Nc2ccc(Cl)cc2C1(O)c1ccccc1` (centres undefined), the T/C [1] was 97 % of control and the T/C [3] was 97 % of control.
With `Oc1cccc2cccnc12` the T/C [1] was 100 % of control and the T/C [2] was 97 % of control.
`CC(O)C(N)C(=O)NCCc1nc(-c2nc(C(=O)NCCCBr)cs2)cs1` (centres undefined) was tested, and the T/C (dose: 50.0 mg/kg/injection, schedule: Q01DX009 (ip), vehicle: saline) was 106 % of control, the T/C (dose: 100.0 mg/kg/injection, schedule: Q01DX009 (ip), vehicle: saline) was 94 % of control and the T/C (dose: 200.0 mg/kg/injection, schedule: Q01DX009 (ip), vehicle: saline) was 103 % of control.
`O=c1c2ccccc2cc2ccccn12` was tested, and the T/C [9] was 109 % of control, the T/C (dose: 100.0 mg/kg/injection, schedule: Q04DX003 (ip), vehicle: Klucel (hydroxypropylcellulose) (HPC)) was 91 % of control and the T/C [10] was 109 % of control. The T/C (dose: 200.0 mg/kg/injection, schedule: Q04DX003 (ip), vehicle: Klucel (hydroxypropylcellulose) (HPC)) was 95 % of control.
For `Cc1ccc(NC(=O)Oc2c(C)cc(Cl)cc2C)c([N+](=O)[O-])c1`, the T/C [5] was 90 % of control and the T/C [1] was 101 % of control.
With `Oc1cccc2ccc(CC(O)(c3ccccc3)c3ccccc3)nc12` the T/C [5] was 108 % of control, the T/C [1] was 99 % of control and the T/C [2] was 108 % of control.
In the case of `CC1=C(C)C2(C)C1(C)C1(C)C(C)=C(C)C21C` (centres undefined), the T/C (dose: 50.0 mg/kg/injection, schedule: Q01DX009 (ip), vehicle: Klucel (hydroxypropylcellulose) (HPC)) was 100 % of control, the T/C [9] was 90 % of control and the T/C [10] was 105 % of control.
With `CCOC(=O)C1(C(C)C)OC2(O)CCCCCN2C1=O` (centres undefined) the T/C [1] was 95 % of control, the T/C [2] was 109 % of control and the T/C [3] was 104 % of control.
`COC1CC(N=[N+]=[N-])C(OS(C)(=O)=O)C(C)O1` (centres undefined) was tested, and the T/C [4] was 101 % of control, the T/C [6] was 102 % of control and the T/C [8] was 101 % of control.
`COc1cc([N+](=O)[O-])c(C)cc1Nc1ccc(OC)c(OC)c1` was tested, and the T/C [1] was 100 % of control, the T/C [2] was 103 % of control and 106 % of control and the T/C [4] was 100 % of control. For the same molecule, the T/C [3] was 87 % of control and 94 % of control, the T/C [6] was 100 % of control and the T/C [7] was 97 % of control and 100 % of control. The T/C [8] was 90 % of control.
`O=c1cc(O)[nH]c(=S)[nH]1` was tested, and the T/C [1] was 103 % of control, the T/C [2] was 99 % of control and the T/C [3] was 88 % of control.
For `OCCNCCNCC[OH2+].OCCNCCNCC[OH2+].[Cu+2].[O-][Cl+3]([O-])([O-])[O-]`, the T/C (dose: 12.5 mg/kg/injection, schedule: Q01DX009 (ip), vehicle: other) was 99 % of control, the T/C (dose: 25.0 mg/kg/injection, schedule: Q01DX009 (ip), vehicle: other) was 115 % of control and the T/C (dose: 50.0 mg/kg/injection, schedule: Q01DX009 (ip), vehicle: other) was 109 % of control.
`Cc1cc(=O)[nH]c(N/N=C/c2ccco2)n1` was tested, and the T/C (dose: 12.5 mg/kg/injection, schedule: Q01DX009 (ip), vehicle: gum acacia) was 108 % of control, the T/C (dose: 25.0 mg/kg/injection, schedule: Q01DX009 (ip), vehicle: gum acacia) was 104 % of control and the T/C (dose: 50.0 mg/kg/injection, schedule: Q01DX009 (ip), vehicle: gum acacia) was 108 % of control. For the same molecule, the T/C (dose: 100.0 mg/kg/injection, schedule: Q04DX003 (ip), vehicle: gum acacia) was 109 % of control and the T/C (dose: 200.0 mg/kg/injection, schedule: Q04DX003 (ip), vehicle: gum acacia) was 118 % of control.
`[O-][N+](=Nc1cccc(Cl)c1)c1cccc(Cl)c1` was tested, and the T/C [1] was 93 % of control, the T/C [11] was 89 % of control and the T/C [2] was 93 % of control. The T/C [12] was 90 % of control and the T/C [3] was 94 % of control.
For `CCOC(=O)C12CC=CC(CCC1)C2=O` (centres undefined) (tested in a mixture with another compound), the T/C [2] was 100 % of control, the T/C [4] was 90 % of control and the T/C [3] was 104 % of control. The T/C [6] was 95 % of control, the T/C [7] was 90 % of control and the T/C [8] was 104 % of control.
With `CC(=O)Nc1nnc(/C=C/c2ccc([N+](=O)[O-])o2)s1` the T/C (dose: 400.0 mg/kg/injection, schedule: Q04DX003 (ip), vehicle: Klucel (hydroxypropylcellulose) (HPC)) was 100 % of control.
With `O=NN(CCCl)C(=O)NC1CCC(NC(=O)N(CCCl)N=O)CC1` (centres undefined) the T/C (dose: 11.0 mg/kg/injection, schedule: Q04DX003 (ip), vehicle: saline with Tween-80) was 229 % of control, the T/C (dose: 13.0 mg/kg/injection, schedule: Q01DX009 (ip), vehicle: saline with Tween-80) was 187 % of control and the T/C (dose: 20.0 mg/kg/injection, schedule: Q01DX009 (ip), vehicle: saline with Tween-80) was 250 % of control and 272 % of control. The T/C (dose: 22.0 mg/kg/injection, schedule: Q04DX003 (ip), vehicle: saline with Tween-80) was 209 % of control and 220 % of control, the T/C (dose: 30.0 mg/kg/injection, schedule: Q01DX009 (ip), vehicle: saline with Tween-80) was 272 % of control and the T/C (dose: 44.0 mg/kg/injection, schedule: Q01DX009 (ip), vehicle: saline with Tween-80) was 272 % of control. The T/C (dose: 44.0 mg/kg/injection, schedule: Q04DX003 (ip), vehicle: saline with Tween-80) was 272 % of control, the T/C [11] was 240 % of control and 272 % of control and the T/C (dose: 88.0 mg/kg/injection, schedule: Q04DX003 (ip), vehicle: saline with Tween-80) was 272 % of control and 300 % of control. For the same molecule, the T/C [2] was 224 % of control and 192 % of control, the T/C (dose: 133.0 mg/kg/injection, schedule: Q04DX003 (ip), vehicle: saline with Tween-80) was 300 % of control and the T/C [12] was 176 % of control. For the same molecule, the T/C [3] was 115 % of control, the T/C [6] was 300 % of control and the T/C (dose: 300.0 mg/kg/injection, schedule: Q04DX003 (ip), vehicle: saline with Tween-80) was 210 % of control.
For `CS(=O)(=O)Nc1ccc(NS(C)(=O)=O)c(SCc2ccccc2)c1`, the T/C (dose: 100.0 mg/kg/injection, schedule: Q01DX001 (ip), vehicle: Klucel (hydroxypropylcellulose) (HPC)) was 100 % of control, the T/C (dose: 200.0 mg/kg/injection, schedule: Q01DX001 (ip), vehicle: Klucel (hydroxypropylcellulose) (HPC)) was 100 % of control and the T/C (dose: 400.0 mg/kg/injection, schedule: Q01DX001 (ip), vehicle: Klucel (hydroxypropylcellulose) (HPC)) was 100 % of control.
